13 molecules from PMC11243693, “Synthesis and Biological Evaluation of New Compounds with Nitroimidazole Moiety” (Molecules, 2024) can be followed below.

Data set [1] deals with Staphylococcus aureus ATCC 43300 methicillin-resistant MRSA. In words: Broth microdilution, S. aureus ATCC 43300 MRSA. The class given is cell-based. Conditions: Staphylococcus aureus, Sa 43300 MRSA; for MBC: read-out: MBC; for MIC: read-out: MIC. The protocol:
(§1) The antibacterial activity of the obtained thiosemicarbazides and hydrazide–hydrazones was determined by evaluating their ability to inhibit microbial growth in vitro using the broth microdilution method, according to the guidelines of the European Committee on Antimicrobial Susceptibility Testing (EUCAST). The method involved the preparation of microbial suspensions with a standardized density of 0.5 on the McFarland scale (equivalent to 1.5 × 10^8 colony-forming units/mL for bacteria and […] for fungi). A solution of the test substances was then prepared (initial concentration 1000 µg/mL, diluted in sterile Mueller-Hinton broth for bacteria or Mueller-Hinton with 2% glucose for fungi). The test was carried out in 96-well polystyrene flat-bottom plates (Medlab, Poland) with 100 µL of appropriate sterile microbiological medium in each well. The first wells were filled with 200 µL of the test substance, diluted to the initial concentration, and then double-decreasing dilutions were made under aseptic conditions using an automatic pipette. The final step was the addition of a 10-fold diluted microbial suspension of 2 µL. At the same time, the following controls were included: (a) medium control (100 µL of sterile medium without microorganisms added), (b) microbial viability control, (c) test substance control (dilutions without added micro-organisms), (d) positive control of the drug used in the clinic. The plates thus prepared were incubated for 18 ± 2 h at 35 ± 2 °C under conditions optimal for the growth of the test microorganisms. After incubation, the spectrophotometric absorbance at 570 nm in each well of the plate was read. The aim of this part of the study was to determine two parameters: the minimum inhibitory concentration (MIC) and the minimum bactericidal or fungicidal concentration (MBC/MFC) of the test compound. […] The MBC value was determined by adding 5 µL of the contents of each well of the plate to solid sterile MHA or MHA + 2%glc medium for bacteria and fungi, respectively. The area on the plate where 99.9% inhibition of microbial growth was observed indicated the lethal concentration. In addition, the quotient MBC(MFC)/MIC could be determined to assess the nature of the activity of the test substance. If MBC(MFC)/MIC was <4, the test substance was bactericidal/fungicidal, whereas if MBC(MFC)/MIC was ≥4, it was bacteriostatic/fungistatic. Amoxicillin (Glentham Life Sciences, USA) and nystatin (Glentham Life Sciences, USA) were used as the controls for this assay.
(§2) The test was performed either on bacteria, comprising: Gram-positive (Staphylococcus aureus ATCC 25923, Staphylococcus aureus ATCC 6538, Staphylococcus aureus ATCC 43300 methicillin-resistant MRSA, Staphylococcus epidermidis ATCC 12228, Micrococcus luteus ATCC 10240, Bacillus subtilis ATCC 6633, Bacillus cereus ATCC 10876) and Gram-negative (Escherichia coli ATCC 25922, Pseudomonas aeruginosa ATCC 27853, Proteus mirabilis ATCC 12453, Klebsiella pneumoniae ATCC 13883) or yeast (Candida parapsilosis ATCC 22019, Candida glabrata ATCC 90030, Candida krusei ATCC 14243, Candida glabrata ATCC 15126, Candida tropicalis ATCC 1369, Candida auris CDC B11903, Candida lusitaniae ATCC 3449) reference strains from the American Type Culture Collection (ATCC) or the Centers for Disease Control and Prevention (CDC).
(In general: In broth dilution the organism is exposed to a series of concentrations in liquid medium.)

Data set [2] deals with Candida auris CDC B11903. In words: Broth microdilution, C. auris CDC B11903. The class given is cell-based. Conditions: Candidozyma auris, CDCB11903; Ca B11903; read-out: MIC. The procedure:
as §1, §2

Data set [3] concerns Candida parapsilosis ATCC 22019. In words: Broth microdilution, C. parapsilosis ATCC 22019. In kind it is cell-based. Conditions: Lodderomyces parapsilosis, ATCC22019, Cp 22019; for MIC: read-out: MIC. The protocol:
as §1, §2

Data set [4] deals with Candida lusitaniae ATCC 3449. Put plainly: Broth microdilution, C. lusitaniae ATCC 3449. The class given is cell-based. Conditions: Clavispora lusitaniae, ATCC3449; Cl 3449; read-out: MIC. The procedure: as §1, §2
Data set [5] relates to Candida glabrata ATCC 90030. Put plainly: Broth microdilution, C. glabrata ATCC 90030. The class given is cell-based. Conditions: Nakaseomyces glabratus, ATCC90030; Cg 90030; read-out: MIC. The protocol:
as §1, §2

Data set [6] has as its system Bacillus subtilis ATCC 6633. Put plainly: Broth microdilution, B. subtilis ATCC 6633. In kind it is cell-based. Conditions: Bs 6633; for MBC / MIC: Bacillus subtilis, ATCC6633; for MBC: read-out: MBC; for MIC: read-out: MIC. The protocol: as §1, §2
Data set [7] relates to Bacillus cereus ATCC 10876. Put plainly: Broth microdilution, B. cereus ATCC 10876. Conditions: Bacillus cereus, ATCC10876, Bc 10876; for MBC: read-out: MBC; for MIC: read-out: MIC. The class given is cell-based. The protocol:
as §1, §2

Data set [8] relates to Candida tropicalis ATCC 1369. Put plainly: Broth microdilution, C. tropicalis ATCC 1369. Conditions: Candida tropicalis, ATCC1369, Ct 1369; for MIC: read-out: MIC. In kind it is cell-based. The protocol: as §1, §2
Data set [9] relates to Micrococcus luteus ATCC 10240. In words: Broth microdilution, M. luteus ATCC 10240. The class given is cell-based. Conditions: Micrococcus luteus, ATCC10240, Ml 10240; for MBC: read-out: MBC; for MIC: read-out: MIC. The protocol: as §1, §2
For data set [10], the system named is Staphylococcus epidermidis ATCC 12228. Put plainly: Broth microdilution, S. epidermidis ATCC 12228. In kind it is cell-based. Conditions: Se 12228; for MBC / MIC: Staphylococcus epidermidis, ATCC12228; for MBC: read-out: MBC; for MIC: read-out: MIC. The procedure: as §1, §2
The test system of data set [11] is Staphylococcus aureus ATCC 25923. In words: Broth microdilution, S. aureus ATCC 25923. Conditions: Staphylococcus aureus, ATCC25923, Sa 25923; for MBC: read-out: MBC; for MIC: read-out: MIC. In kind it is cell-based. The procedure: as §1, §2
For data set [12], the system named is Candida krusei ATCC 14243. Put plainly: Broth microdilution, C. krusei ATCC 14243. In kind it is cell-based. Conditions: Pichia kudriavzevii, ATCC14243; Ck 14243; read-out: MIC. The procedure:
as §1, §2

In data set [13] the test system is Candida glabrata ATCC 15126. Put plainly: Broth microdilution, C. glabrata ATCC 15126. The class given is cell-based. Conditions: Nakaseomyces glabratus, ATCC15126; Cg 15126; read-out: MIC. The protocol: as §1, §2
The subject of data set [14] is Staphylococcus aureus ATCC 6538. In words: Broth microdilution, S. aureus ATCC 6538. In kind it is cell-based. Conditions: Sa 6538; for MBC / MIC: Staphylococcus aureus, ATCC6538; for MBC: read-out: MBC; for MIC: read-out: MIC. The protocol:
as §1, §2

The mark [15] stands for this setting: <4 bactericidal, ≥4 bacteriostatic.

Values after ≈ are worked out from the molar mass of the structure shown.

Broadly, the MBC is the smallest concentration meeting the test's criterion for killing. One may read the MIC as the lowest concentration found to suppress growth. The term MFC denotes the lowest tested concentration that kills the fungus rather than only halting it. The melting point is the temperature, or range, at which the solid turns liquid.

Take `Cc1cccc(NC(=S)NNC(=O)c2nc([N+](=O)[O-])cn2C)c1` [Compound 16, 1-[(1-methyl-4-nitroimidazol-2-yl)carbonyl]-4-(3-methylphenyl)-thiosemicarbazide]: the MBC was over 1000 µg/mL in data set [1]; 500 µg/mL (≈ 1500 µM) in data set [6]; over 1000 µg/mL in data set [7]; over 1000 µg/mL in data set [9]; 500 µg/mL (≈ 1500 µM) in [10]; over 1000 µg/mL in [11]. Further, the MBC in [14] was over 1000 µg/mL. Moreover, the MIC is 125 µg/mL (≈ 374 µM) in data set [1]; over 1000 µg/mL in [2]; 500 µg/mL (≈ 1500 µM) in [3]; over 1000 µg/mL in data set [4]; over 1000 µg/mL in data set [5]; 500 µg/mL (≈ 1500 µM) in data set [6]. Also, the MIC is 250 µg/mL (≈ 748 µM) in [7]; over 1000 µg/mL in data set [8]; 500 µg/mL (≈ 1500 µM) in [9]; 500 µg/mL (≈ 1500 µM) in [10]; 250 µg/mL (≈ 748 µM) in data set [11]; over 1000 µg/mL in [12]. Moreover, the MIC was over 1000 µg/mL in [13] and 62.5 µg/mL (≈ 187 µM) in [14]. Moreover, the MFC in data set [3] (read-out: MFC) was over 1000 µg/mL. Moreover, the “MBC/MIC Ratio” value in data set [6] (setting [15]) and in data set [10] (setting [15]) was 1 throughout.
In the case of `Cc1ccc(NC(=S)NNC(=O)c2nc([N+](=O)[O-])cn2C)cc1` [Compound 17, 1-[(1-methyl-4-nitroimidazol-2-yl)carbonyl]-4-(4-methylphenyl)thiosemicarbazide], the MBC in data set [1], in data set [6], in data set [7], in data set [9], in data set [10] and in data set [11] was over 1000 µg/mL each time. Moreover, in [14], the MBC stood at 125 µg/mL (≈ 374 µM). The MIC in data set [1] was 125 µg/mL (≈ 374 µM); in data set [2] it was over 1000 µg/mL; in data set [3], over 1000 µg/mL; in [4], over 1000 µg/mL; in data set [5], over 1000 µg/mL; in [6] it was 500 µg/mL (≈ 1500 µM). Also, the MIC in [7] is 62.5 µg/mL (≈ 187 µM); in data set [8], 250 µg/mL (≈ 748 µM); in [9] it was 500 µg/mL (≈ 1500 µM); in data set [10] it was 500 µg/mL (≈ 1500 µM); in data set [11], 125 µg/mL (≈ 374 µM); in data set [12], over 1000 µg/mL. In addition, the MIC in data set [13] is over 1000 µg/mL; in [14] it was 125 µg/mL (≈ 374 µM). In addition, in data set [8] (read-out: MFC), the MFC is over 1000 µg/mL. The “MBC/MIC Ratio” value in data set [14] (setting [15]) was determined as 1.
As for `Cn1cc([N+](=O)[O-])nc1C(=O)NN=Cc1ccccc1` [Compound 19, 1-methyl-4-nitro-N’-(phenylmethylidene)-1H-imidazole-2-carbohydrazide], the melting point lay in the range of 280 to 284 °C.
For the molecule `Cn1cc([N+](=O)[O-])nc1C(=O)NN=Cc1ccccc1Cl` [Compound 20, N’-[(2-chlorophenyl)methylidene]-1-methyl-4-nitro-1H-imidazole-2-carbohydrazide], the melting point lay within 234 to 236 °C.
On the same count and under the same terms, the value for `Cn1cc([N+](=O)[O-])nc1C(=O)NN=Cc1cccc(Cl)c1` [Compound 21, N’-[(3-chlorophenyl)methylidene]-1-methyl-4-nitro-1H-imidazole-2-carbohydrazide] was 276 to 278 °C; that for `Cn1cc([N+](=O)[O-])nc1C(=O)NN=Cc1ccccc1F` [Compound 22, N’-[(2-fluorophenyl)methylidene]-1-methyl-4-nitro-1H-imidazole-2-carbohydrazide] was 214 to 217 °C.
The same measure, in the same setting: with `COc1ccccc1C=NNC(=O)c1nc([N+](=O)[O-])cn1C` [Compound 23, N’-[(2-methoxyphenyl)methylidene]-1-methyl-4-nitro-1H-imidazole-2-carbohydrazide] the figure was 205 to 208 °C.
Molecule `COc1cccc(C=NNC(=O)c2nc([N+](=O)[O-])cn2C)c1` [Compound 24, N’-[(3-methoxyphenyl)methylidene]-1-methyl-4-nitro-1H-imidazole-2-carbohydrazide] gave a melting point of 208 to 210 °C.
On the same count and under the same terms, the value for `COc1ccc(C=NNC(=O)c2nc([N+](=O)[O-])cn2C)cc1` [Compound 25, N’-[(4-methoxyphenyl)methylidene]-1-methyl-4-nitro-1H-imidazole-2-carbohydrazide] was 224 to 226 °C.
For the molecule `Cn1cc([N+](=O)[O-])nc1C(=O)NN=Cc1ccc(C(F)(F)F)cc1` [Compound 26, 1-methyl-4-nitro-N’-[(4-trifluoromethylphenyl)methylidene]-1H-imidazole-2-carbohydrazide], the melting point lay in the range of 208 to 210 °C.
The same measure, in the same setting: the value for `Cn1cc([N+](=O)[O-])nc1C(=O)NN=Cc1cccc(O)c1` [Compound 27, N’-[(3-hydroxyphenyl)methylidene]-1-methyl-4-nitro-1H-imidazole-2-carbohydrazide] was 208 to 210 °C; that for `Cn1cc([N+](=O)[O-])nc1C(=O)NN=Cc1cccc(Cl)c1F` [Compound 28, N’-[(3-chloro-2-fluorophenyl)methylidene]-1-methyl-4-nitro-1H-imidazole-2-carbohydrazide] was 252 to 255 °C; that for `COc1cc(Cl)ccc1C=NNC(=O)c1nc([N+](=O)[O-])cn1C` [Compound 29, N’-[(4-chloro-2-methoxyphenyl)methylidene]-1-methyl-4-nitro-1H-imidazole-2-carbohydrazide] was 234 to 237 °C.
